Data: the supplement of paper PMC4862054

Test system: CAL-51
Assay: normalised response (% of control), CellTiter-Glo; higher = more viable cells (100 = DMSO, 0 = benzethonium chloride kill control)
Details: incubation time: 72 h
How it was run: (§1)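 Each entry is the normalised signal at a single concentration within a series. The series comprised 5 concentrations in 10-fold steps over a compound-specific 10,000-fold range, placed in 384-well plates into which breast cancer cell lines were seeded as 20 µl suspension and incubated 72 h. CellTox Green (485/520 nm) fluorescence and then CellTiter-Glo luminescence were read, with signals normalised per plate to 0.1 % DMSO (100) and a positive kill control (0).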

SMILES | normalised response
Oc1ccc2c(c1)CC[C@H](c1ccccc1)[C@@H]2c1ccc(OCCN2CCCC2)cc1 [Lasofoxifene] (100 nM) | 103%
Cc1ccc(NC(=O)c2ccc(CN3CCN(C)CC3)cc2)cc1Nc1nc(-c2cccnc2)cs1 [Masitinib] (1000 nM) | 80.5%
O=C(Nc1cccnc1)N1CCC(Cc2cccc(Oc3ccc(C(F)(F)F)cn3)c2)CC1 [PF-3845] (1000 nM) | 98.3%
Cc1[nH]c2ccccc2c1CCNCc1ccc(/C=C/C(=O)NO)cc1 [Panobinostat] (100 nM) | 24.6%
COCC1(CO)C(=O)C2CCN1CC2 (stereo not given) [Prima-1 Met] (1000 nM) | 108%
CNC(=O)c1cc(Oc2ccc(NC(=O)Nc3ccc(Cl)c(C(F)(F)F)c3)c(F)c2)ccn1 [Regorafenib] (1000 nM) | 65.6%
c1ccc2c(CCNc3ccc(Nc4ccncc4)cc3)c[nH]c2c1 [Serdemetan] (1000 nM) | 24.4%
CN(C)CCOc1ccc(/C(=C(/CCCl)c2ccccc2)c2ccccc2)cc1 [Toremifene] (1000 nM) | 108%
CC(C)C[C@@H](C(=O)N[C@H](C(=O)OC1CCCC1)c1ccccc1)[C@H](O)C(=O)NO [Tosedostat] (1000 nM) | 91%
COCC[n+]1c2c(n(Cc3cnccn3)c1C)C(=O)c1ccccc1C2=O [YM155] (1000 nM) | -0.05%

Test system: CAL-120
Assay: as above
Details: incubation time: 72 h
How it was run: as §1

SMILES | normalised response
N#Cc1ccc(COC[C@H]2O[C@@H](n3c(NCc4ccc(Cl)c(Cl)c4)nc4c(N)ncnc43)[C@H](O)[C@@H]2O)cc1 (1000 nM) | 101%
COc1cc(OC2CCN(C)CC2)ccc1Nc1ncc2c(n1)n(C1CCCC1)c(=O)n2C [AZ 3146] (1000 nM) | 98%
CN(C)c1nc(N(C)C)nc(N(C)C)n1 [Altretamine] (1000 nM) | 99.5%
O=C(/C=C/c1cccc(S(=O)(=O)Nc2ccccc2)c1)NO [Belinostat] (1000 nM) | 39.8%
O=P1(N(CCCl)CCCl)NCCCO1 (stereo not given) [Cyclophosphamide] (4000 nM) | 94.4%
C=C1C[C@@H]2[C@H](CC[C@]3(C)C(=O)CC[C@@H]23)[C@@]2(C)C=CC(=O)C=C12 [Exemestane] (1000 nM) | 102%
COc1cc2ncnc(Nc3ccc(F)c(Cl)c3)c2cc1OCCCN1CCOCC1 [Gefitinib] (1000 nM) | 103%
O=C(Nc1ccncc1)C(=O)c1cn(Cc2ccc(Cl)cc2)c2ccccc12 [Indibulin] (1000 nM) | 66.9%
NC(=O)c1ccc(I)c([N+](=O)[O-])c1 [Iniparib] (1000 nM) | 93.2%
CCc1c2c(nc3ccc(OC(=O)N4CCC(N5CCCCC5)CC4)cc13)-c1cc3c(c(=O)n1C2)COC(=O)[C@]3(O)CC [Irinotecan] (1000 nM) | 83.7%
Oc1ccc2c(c1)CC[C@H](c1ccccc1)[C@@H]2c1ccc(OCCN2CCCC2)cc1 [Lasofoxifene] (100 nM) | 107%
Cc1ccc(NC(=O)c2ccc(CN3CCN(C)CC3)cc2)cc1Nc1nc(-c2cccnc2)cs1 [Masitinib] (1000 nM) | 95.5%
O=C(Nc1cccnc1)N1CCC(Cc2cccc(Oc3ccc(C(F)(F)F)cn3)c2)CC1 [PF-3845] (1000 nM) | 99%
Cc1[nH]c2ccccc2c1CCNCc1ccc(/C=C/C(=O)NO)cc1 [Panobinostat] (100 nM) | 41.5%
COCC1(CO)C(=O)C2CCN1CC2 (stereo not given) [Prima-1 Met] (1000 nM) | 99.3%
CNC(=O)c1cc(Oc2ccc(NC(=O)Nc3ccc(Cl)c(C(F)(F)F)c3)c(F)c2)ccn1 [Regorafenib] (1000 nM) | 94.9%
c1ccc2c(CCNc3ccc(Nc4ccncc4)cc3)c[nH]c2c1 [Serdemetan] (1000 nM) | 93.7%
CN(C)CCOc1ccc(/C(=C(/CCCl)c2ccccc2)c2ccccc2)cc1 [Toremifene] (1000 nM) | 98.5%
CC(C)C[C@@H](C(=O)N[C@H](C(=O)OC1CCCC1)c1ccccc1)[C@H](O)C(=O)NO [Tosedostat] (1000 nM) | 43.4%
COCC[n+]1c2c(n(Cc3cnccn3)c1C)C(=O)c1ccccc1C2=O [YM155] (1000 nM) | 3.05%

Test system: CAL-85-1
Assay: as above
Details: incubation time: 72 h
How it was run: as §1

SMILES | normalised response
N#Cc1ccc(COC[C@H]2O[C@@H](n3c(NCc4ccc(Cl)c(Cl)c4)nc4c(N)ncnc43)[C@H](O)[C@@H]2O)cc1 (1000 nM) | 107%
COc1cc(OC2CCN(C)CC2)ccc1Nc1ncc2c(n1)n(C1CCCC1)c(=O)n2C [AZ 3146] (1000 nM) | 98.2%
CN(C)c1nc(N(C)C)nc(N(C)C)n1 [Altretamine] (1000 nM) | 102%
O=C(/C=C/c1cccc(S(=O)(=O)Nc2ccccc2)c1)NO [Belinostat] (1000 nM) | 44.5%
O=P1(N(CCCl)CCCl)NCCCO1 (stereo not given) [Cyclophosphamide] (4000 nM) | 92.1%
C=C1C[C@@H]2[C@H](CC[C@]3(C)C(=O)CC[C@@H]23)[C@@]2(C)C=CC(=O)C=C12 [Exemestane] (1000 nM) | 98.3%
COc1cc2ncnc(Nc3ccc(F)c(Cl)c3)c2cc1OCCCN1CCOCC1 [Gefitinib] (1000 nM) | 58.4%
O=C(Nc1ccncc1)C(=O)c1cn(Cc2ccc(Cl)cc2)c2ccccc12 [Indibulin] (1000 nM) | 38.3%
NC(=O)c1ccc(I)c([N+](=O)[O-])c1 [Iniparib] (1000 nM) | 94.5%
CCc1c2c(nc3ccc(OC(=O)N4CCC(N5CCCCC5)CC4)cc13)-c1cc3c(c(=O)n1C2)COC(=O)[C@]3(O)CC [Irinotecan] (1000 nM) | 104%
Oc1ccc2c(c1)CC[C@H](c1ccccc1)[C@@H]2c1ccc(OCCN2CCCC2)cc1 [Lasofoxifene] (100 nM) | 97.6%
Cc1ccc(NC(=O)c2ccc(CN3CCN(C)CC3)cc2)cc1Nc1nc(-c2cccnc2)cs1 [Masitinib] (1000 nM) | 111%
O=C(Nc1cccnc1)N1CCC(Cc2cccc(Oc3ccc(C(F)(F)F)cn3)c2)CC1 [PF-3845] (1000 nM) | 95%
Cc1[nH]c2ccccc2c1CCNCc1ccc(/C=C/C(=O)NO)cc1 [Panobinostat] (100 nM) | 25.9%
COCC1(CO)C(=O)C2CCN1CC2 (stereo not given) [Prima-1 Met] (1000 nM) | 105%
CNC(=O)c1cc(Oc2ccc(NC(=O)Nc3ccc(Cl)c(C(F)(F)F)c3)c(F)c2)ccn1 [Regorafenib] (1000 nM) | 109%
c1ccc2c(CCNc3ccc(Nc4ccncc4)cc3)c[nH]c2c1 [Serdemetan] (1000 nM) | 125%
CN(C)CCOc1ccc(/C(=C(/CCCl)c2ccccc2)c2ccccc2)cc1 [Toremifene] (1000 nM) | 99.2%
CC(C)C[C@@H](C(=O)N[C@H](C(=O)OC1CCCC1)c1ccccc1)[C@H](O)C(=O)NO [Tosedostat] (1000 nM) | 48.2%
COCC[n+]1c2c(n(Cc3cnccn3)c1C)C(=O)c1ccccc1C2=O [YM155] (1000 nM) | -0.48%

Test system: HCC1937
Assay: as above
Details: incubation time: 72 h
How it was run: as §1

SMILES | normalised response
N#Cc1ccc(COC[C@H]2O[C@@H](n3c(NCc4ccc(Cl)c(Cl)c4)nc4c(N)ncnc43)[C@H](O)[C@@H]2O)cc1 (1000 nM) | 86.9%
COc1cc(OC2CCN(C)CC2)ccc1Nc1ncc2c(n1)n(C1CCCC1)c(=O)n2C [AZ 3146] (1000 nM) | 97.2%
CN(C)c1nc(N(C)C)nc(N(C)C)n1 [Altretamine] (1000 nM) | 99.4%
O=C(/C=C/c1cccc(S(=O)(=O)Nc2ccccc2)c1)NO [Belinostat] (1000 nM) | 69.9%
O=P1(N(CCCl)CCCl)NCCCO1 (stereo not given) [Cyclophosphamide] (4000 nM) | 99%
C=C1C[C@@H]2[C@H](CC[C@]3(C)C(=O)CC[C@@H]23)[C@@]2(C)C=CC(=O)C=C12 [Exemestane] (1000 nM) | 103%
COc1cc2ncnc(Nc3ccc(F)c(Cl)c3)c2cc1OCCCN1CCOCC1 [Gefitinib] (1000 nM) | 87.9%
O=C(Nc1ccncc1)C(=O)c1cn(Cc2ccc(Cl)cc2)c2ccccc12 [Indibulin] (1000 nM) | 73.9%
NC(=O)c1ccc(I)c([N+](=O)[O-])c1 [Iniparib] (1000 nM) | 97.7%
CCc1c2c(nc3ccc(OC(=O)N4CCC(N5CCCCC5)CC4)cc13)-c1cc3c(c(=O)n1C2)COC(=O)[C@]3(O)CC [Irinotecan] (1000 nM) | 91.8%
Oc1ccc2c(c1)CC[C@H](c1ccccc1)[C@@H]2c1ccc(OCCN2CCCC2)cc1 [Lasofoxifene] (100 nM) | 96%
Cc1ccc(NC(=O)c2ccc(CN3CCN(C)CC3)cc2)cc1Nc1nc(-c2cccnc2)cs1 [Masitinib] (1000 nM) | 101%
O=C(Nc1cccnc1)N1CCC(Cc2cccc(Oc3ccc(C(F)(F)F)cn3)c2)CC1 [PF-3845] (1000 nM) | 99%
Cc1[nH]c2ccccc2c1CCNCc1ccc(/C=C/C(=O)NO)cc1 [Panobinostat] (100 nM) | 63.1%
COCC1(CO)C(=O)C2CCN1CC2 (stereo not given) [Prima-1 Met] (1000 nM) | 92.2%
CNC(=O)c1cc(Oc2ccc(NC(=O)Nc3ccc(Cl)c(C(F)(F)F)c3)c(F)c2)ccn1 [Regorafenib] (1000 nM) | 103%
c1ccc2c(CCNc3ccc(Nc4ccncc4)cc3)c[nH]c2c1 [Serdemetan] (1000 nM) | 88.5%
CN(C)CCOc1ccc(/C(=C(/CCCl)c2ccccc2)c2ccccc2)cc1 [Toremifene] (1000 nM) | 96.7%
CC(C)C[C@@H](C(=O)N[C@H](C(=O)OC1CCCC1)c1ccccc1)[C@H](O)C(=O)NO [Tosedostat] (1000 nM) | 67.4%
COCC[n+]1c2c(n(Cc3cnccn3)c1C)C(=O)c1ccccc1C2=O [YM155] (1000 nM) | 0.41%

Test system: HDQ-P1
Assay: as above
Details: incubation time: 72 h
How it was run: as §1

SMILES | normalised response
N#Cc1ccc(COC[C@H]2O[C@@H](n3c(NCc4ccc(Cl)c(Cl)c4)nc4c(N)ncnc43)[C@H](O)[C@@H]2O)cc1 (1000 nM) | 98.7%
COc1cc(OC2CCN(C)CC2)ccc1Nc1ncc2c(n1)n(C1CCCC1)c(=O)n2C [AZ 3146] (1000 nM) | 98.4%
CN(C)c1nc(N(C)C)nc(N(C)C)n1 [Altretamine] (1000 nM) | 105%
O=C(/C=C/c1cccc(S(=O)(=O)Nc2ccccc2)c1)NO [Belinostat] (1000 nM) | 68.8%
O=P1(N(CCCl)CCCl)NCCCO1 (stereo not given) [Cyclophosphamide] (4000 nM) | 98%
